Source: article PMC6045597, “Probiotics in human gut microbiota can degrade host glycosaminoglycans” (Scientific Reports, 2018)

Columns and labels:
Experiment in all cases: coupled NADH oxidation at […] nm
Format in all cases: biochemical
KduD = biological target: T1, KduD (Lacticaseibacillus rhamnosus, UniProt A0A0E3CKR8); conditions: DK-II formed in situ from DHU by KduI or DhuI
T1 construct: recombinant, expressed in E. coli, purified to homogeneity; encoded in GAG genetic cluster
T1 sequence (A0A0E3CKR8 23-274): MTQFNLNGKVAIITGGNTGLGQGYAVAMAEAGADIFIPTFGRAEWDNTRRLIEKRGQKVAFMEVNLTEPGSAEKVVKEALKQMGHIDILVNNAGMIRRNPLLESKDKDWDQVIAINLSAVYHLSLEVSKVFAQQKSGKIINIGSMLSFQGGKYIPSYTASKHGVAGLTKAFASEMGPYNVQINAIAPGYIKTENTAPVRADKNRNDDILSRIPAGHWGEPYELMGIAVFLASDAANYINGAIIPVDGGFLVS

KduI = biological target: T2, KduI (Lacticaseibacillus rhamnosus, UniProt C2JUP1); conditions: isomerase coupled with reductase DhuD or KduD; DHU prepared from unsaturated chondroitin disaccharide (6-sulfate) with UGL
T2 construct: recombinant, expressed in E. coli, purified to homogeneity; encoded in GAG genetic cluster
T2 sequence (C2JUP1 1-281): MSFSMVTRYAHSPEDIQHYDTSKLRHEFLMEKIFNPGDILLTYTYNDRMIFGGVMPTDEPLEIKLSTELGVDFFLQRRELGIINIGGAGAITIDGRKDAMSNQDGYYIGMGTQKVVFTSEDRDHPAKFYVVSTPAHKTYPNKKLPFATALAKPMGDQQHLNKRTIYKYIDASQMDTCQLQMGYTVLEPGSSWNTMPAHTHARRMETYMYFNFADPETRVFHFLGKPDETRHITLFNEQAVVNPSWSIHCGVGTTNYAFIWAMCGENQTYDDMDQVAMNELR

DhuI = biological target: T3, DhuI (Streptococcus agalactiae, UniProt Q8DXE6); conditions: reference isomerase, coupled with reductase DhuD or KduD; DHU prepared with UGL
T3 construct: gene SAG1905; purified protein
T3 sequence (Q8DXE6 1-212): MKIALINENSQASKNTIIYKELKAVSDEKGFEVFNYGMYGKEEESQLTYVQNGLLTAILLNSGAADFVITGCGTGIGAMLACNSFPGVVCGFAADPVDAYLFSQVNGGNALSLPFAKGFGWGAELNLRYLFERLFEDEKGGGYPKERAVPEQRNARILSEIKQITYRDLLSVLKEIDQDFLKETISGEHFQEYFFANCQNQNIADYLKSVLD

DhuD = biological target: T4, DhuD (Streptococcus agalactiae, UniProt Q8E370); conditions: reference reductase, DK-II formed in situ from DHU by DhuI or KduI
T4 construct: gene gbs1891; purified protein
T4 sequence (Q8E370 1-270): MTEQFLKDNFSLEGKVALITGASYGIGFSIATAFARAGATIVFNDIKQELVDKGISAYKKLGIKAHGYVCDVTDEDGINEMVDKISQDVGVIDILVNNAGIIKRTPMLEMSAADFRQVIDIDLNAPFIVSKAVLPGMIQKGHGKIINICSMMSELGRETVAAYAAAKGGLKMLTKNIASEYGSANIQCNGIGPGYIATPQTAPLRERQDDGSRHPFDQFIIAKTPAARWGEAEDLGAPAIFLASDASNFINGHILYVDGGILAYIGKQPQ

SMILES | coupled NADH oxidation at 340 nm (KduD) | coupled NADH oxidation at 340 nm (KduI) | coupled NADH oxidation at 340 nm (DhuI) | coupled NADH oxidation at 340 nm (DhuD)
NC(=O)C1=CN([C@@H]2O[C@H](COP(=O)(O)OP(=O)(O)OC[C@H]3O[C@@H](n4cnc5c(N)ncnc54)[C@H](O)[C@@H]3O)[C@@H](O)[C@H]2O)C=CC1 [NADH] | further reduced to KDG by NADH-dependent reductase KduD | – | – | –
O=C[C@H](O)[C@@H](O)CC(=O)C(=O)O [DHU, 4-deoxy-l-threo-5-hexosulose-uronic acid] | – | KduI catalyses the isomerase reaction from DHU to DK-II | successive reaction of isomerase (DhuI or KduI) and reductase (DhuD or KduD) | –
O=C(O)C(=O)C[C@H](O)C(=O)CO [DK-II, 3-deoxy-d-glycero-2,5-hexodiulosonic acid] | DK-II, which is further reduced to KDG by NADH-dependent reductase KduD | – | – | successive reaction of isomerase (DhuI or KduI) and reductase (DhuD or KduD)
